{
  "source": "patent US8003796B2",
  "about": "“Pyridone GPR119 G protein-coupled receptor agonists” (Bristol-Myers Squibb Company, priority 2007, dated 2011)",
  "key": {"male C57BL/6J mice": {"tested_on": "male C57BL/6J mice", "test": "Mouse oral glucose tolerance test", "format": "in vivo", "conditions": "oGTT in fasted mice; oral administration at -30 min, glucose 2 g/kg at time 0; plasma glucose AUC vs vehicle; dose not given", "method": "Mouse Oral Glucose Tolerance Test\n24 male C57BL/6J mice (8-10 weeks old, average weight 28 g) were randomized into 4 groups (1 mouse/cage) of 6 mice per group based on fed plasma glucose and body weight. Prior to initiating the study, mice were fasted overnight and the next morning they were weighed and placed in the experimental lab. After 30 min in the environment, the mice were bled via tail tip at −30 min and immediately given their first oral administration of vehicle (0.5% Methocel, 0.1% Tween 80 in water) or compound solutions (5 ml/kg). At time 0 the mice were bled and given 50% glucose (2 g/kg) to initiate the oral glucose tolerance test (oGTT). The mice were bled 30, 60 and 120 min after the glucose load. Blood samples were drawn into potassium EDTA, placed on ice during the study and subsequently centrifuged for 10 min at 3000 rpm at 4° C. Plasma samples were diluted 11-fold for glucose analysis in the Cobas Mira System (Roche Diagnostics). Area under the curve was calculated from the plasma glucose time course data using the trapezoid rule with fasting plasma glucose as the baseline (GraphPad Prism Software). The statistical significance of the changes in the glucose AUCs resulting from the different treatments was determined by one-way ANOVA followed by Dunnett's test using the vehicle group as the control (JMP software, release 5.1.2)."}, "human GPR119": {"molecular_target": "T1, human GPR119 (Homo sapiens, UniProt Q8TDV5)", "T1 construct": "expressed in transfected cells; host or cells: Flp-In-T-REx 293 (tetracycline-inducible)", "T1 sequence (Q8TDV5 1-335)": "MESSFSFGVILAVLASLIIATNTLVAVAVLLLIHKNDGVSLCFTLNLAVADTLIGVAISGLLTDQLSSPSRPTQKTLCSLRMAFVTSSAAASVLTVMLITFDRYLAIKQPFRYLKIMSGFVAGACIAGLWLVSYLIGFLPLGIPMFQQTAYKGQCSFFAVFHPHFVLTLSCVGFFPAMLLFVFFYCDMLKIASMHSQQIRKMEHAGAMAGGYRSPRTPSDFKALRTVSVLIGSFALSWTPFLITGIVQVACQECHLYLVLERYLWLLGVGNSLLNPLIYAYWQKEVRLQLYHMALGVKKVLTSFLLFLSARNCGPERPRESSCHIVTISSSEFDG", "test": "Human Tet-inducible cAMP assay", "format": "cell-based", "conditions": "Flp-In-T-REx 293 tetracycline inducible cells expressing GPR119; cAMP by Hit Hunter cAMP kit; 1 hour at 37° C.; read-out: hGPR119 EC50", "method": "The in vitro modulation of recombinant human GPR119 was determined as follows.\nHuman Tet-Inducible cAMP Assay\nCell lines expressing GPR119 are generated using the Flp-In-T-REx 293 tetracycline inducible gene expression system are cultured in culture medium comprising the following components: DMEM#11965, 10% FBS, 2 mM L-glutamine, 200 ug/ml Hygromycin B, and 15 ug/ml blasticidin.\nFor cAMP assays, cells are plated on 96 well plates (e.g., BD Falcon: REF 353948, black side, clear bottom, TC surface) at a density of about 4.5×10^4 cells per well in growth medium containing 1.0 ug/ml tetracycline (1.0 mg/ml stock). The cells are then incubated for 48 hours at 37° C.\nFollowing the incubation, the growth medium is removed from the wells and the wells rinsed (once) with the assay buffer included in the Hit Hunter cAMP kit (100 μl/well). Following the wash, 20 μl of assay buffer is added to each well, followed by addition of 10 μl of a 3× concentration compound working solution. The solution is then mixed. The final concentration range of compound is from about 10^−5M to about 10^−11M. The reagents are then incubated at 37° C. at 5% CO2 for 1 hour.\nThe manufacturer's protocol may be followed for cAMP determination. The Hit Hunter cAMP kit protocol is outlined for the HIT-T15 cAMP assays described above.\nCompounds of the present invention were tested in the Human Tet-inducible cAMP assay described immediately above and the results shown in Table 1 below were obtained."}},
  "note": "Where a name gives a salt, the structure may show the parent alone.",
  "data": [
    {"molecule": "CC(C)OC(=O)N1CCC(Oc2ccn(-c3ccc(S(C)(=O)=O)cc3)c(=O)c2)CC1", "note": "[Example 3, isopropyl 4-(1-(4-(methylsulfonyl)phenyl)-2-oxo-1,2-dihydropyridin-4-yloxy)piperidine-1-carboxylate]", "values": [
      {"measurement": "Glucose Lowering (%)", "setting": "male C57BL/6J mice", "result": "−29", "unit": "%"}
    ]},
    {"molecule": "CC(C)(C)OC(=O)N1CCC(Oc2cc(=O)n(-c3ccc(C#N)c(F)c3)cc2Cl)CC1", "note": "[Example 267, tert-butyl 4-(5-chloro-1-(4-cyano-3-fluorophenyl)-2-oxo-1,2-dihydropyridin-4-yloxy)piperidine-1-carboxylate]", "values": [
      {"measurement": "EC50", "setting": "human GPR119", "result": 0.004, "unit": "µM"}
    ]},
    {"molecule": "CS(=O)(=O)c1ccc(-n2ccc(OC3CCN(S(=O)(=O)c4ccccn4)CC3)cc2=O)cc1", "note": "[Example 86, 1-(4-(methylsulfonyl)phenyl)-4-(1-(pyridin-2-ylsulfonyl)piperidin-4-yloxy)pyridin-2(1H)-one]", "values": [
      {"measurement": "EC50", "setting": "human GPR119", "result": 3.52, "unit": "µM"}
    ]},
    {"molecule": "N#Cc1ccc(-n2cc(Cl)c(OC3CCN(c4ncc(C5CC5)cn4)CC3)cc2=O)cc1F", "note": "[Example 229, 4-(5-chloro-4-(1-(5-cyclopropylpyrimidin-2-yl)piperidin-4-yloxy)-2-oxopyridin-1(2H)-yl)-2-fluorobenzonitrile]", "values": [
      {"measurement": "EC50", "setting": "human GPR119", "result": 0.004, "unit": "µM"}
    ]},
    {"molecule": "CCCc1cnc(N2CCC(Oc3ccn(-c4ccc(S(C)(=O)=O)c(F)c4)c(=O)c3)CC2)nc1", "note": "[Example 175, 1-(3-fluoro-4-(methylsulfonyl)phenyl)-4-(1-(5-propylpyrimidin-2-yl)piperidin-4-yloxy)pyridin-2(1H)-one]", "values": [
      {"measurement": "EC50", "setting": "human GPR119", "result": 0.008, "unit": "µM"}
    ]},
    {"molecule": "N#Cc1ccc(-n2cc(Cl)c(OC3CCN(c4ncc(CCC(F)(F)F)cn4)CC3)cc2=O)cc1F", "note": "[Example 263, 4-(5-chloro-2-oxo-4-(1-(5-(3,3,3-trifluoropropyl)pyrimidin-2-yl)piperidin-4-yloxy)pyridin-1(2H)-yl)-2-fluorobenzonitrile]", "values": [
      {"measurement": "EC50", "setting": "human GPR119", "result": 0.004, "unit": "µM"}
    ]},
    {"molecule": "Cc1cnc(N2CCC(Oc3ccn(-c4ccc(S(C)(=O)=O)cc4)c(=O)c3)CC2)nc1", "note": "[Example 108, 4-(1-(5-methylpyrimidin-2-yl)piperidin-4-yloxy)-1-(4-(methylsulfonyl)phenyl)pyridin-2(1H)-one]", "values": [
      {"measurement": "EC50", "setting": "human GPR119", "result": 0.261, "unit": "µM"}
    ]},
    {"molecule": "Cc1nc(S(C)(=O)=O)ccc1-n1ccc(OC2CCN(C(=O)OC(C)C)CC2)cc1=O", "note": "[Example 207, isopropyl 4-(1-(2-methyl-6-(methylsulfonyl)pyridin-3-yl)-2-oxo-1,2-dihydropyridin-4-yloxy)piperidine-1-carboxylate, TFA salt]", "values": [
      {"measurement": "EC50", "setting": "human GPR119", "result": 7.07, "unit": "µM"}
    ]},
    {"molecule": "CS(=O)(=O)c1ccc(-n2ccc(OC3CCN(S(C)(=O)=O)CC3)cc2=O)cc1", "note": "[Example 83, 1-(4-(methylsulfonyl)phenyl)-4-(1-(methylsulfonyl)piperidin-4-yloxy)pyridin-2(1H)-one]", "values": [
      {"measurement": "EC50", "setting": "human GPR119", "result": 4.34, "unit": "µM"}
    ]},
    {"molecule": "Cc1cc(Br)ccc1OC(=O)N1CCC(Oc2ccn(-c3ccc(S(C)(=O)=O)cc3)c(=O)c2)CC1", "note": "[Example 143, 4-bromo-2-methylphenyl 4-(1-(4-(methylsulfonyl)phenyl)-2-oxo-1,2-dihydropyridin-4-yloxy)piperidine-1-carboxylate]", "values": [
      {"measurement": "EC50", "setting": "human GPR119", "result": 0.274, "unit": "µM"}
    ]}
  ]
}
